According to patent US7138504B2, “Reagents and methods for mycophenolic acid immunoassay” (Microgenics Corporation, priority 2004, dated 2006):

Legend:
[1] = test system: antibody raised against MPAlc; test: CEDIA MPA assay specificity (cross-reactivity) in MPA-free plasma; format: binding, goats
Method: “Cross reactivity” is determined in a quantitative immunoassay by establishing a standard curve using known dilutions of MPA. The standard curve is then used to calculate the apparent concentration of the interfering substance present in various known amounts in samples assayed under substantially similar conditions. The percent (%) cross-reactivity is the measured concentration divided by the tested concentration multiplied by 100%. […] If MPA is present in the sample, it binds to the antibody, leaving the ED portion of the ED-containing conjugate free to restore enzyme activity upon association with enzyme acceptor (EA) fragments in the assay reaction mixture. The active enzyme is then capable of producing a quantifiable reaction product when exposed to appropriate substrate. If MPA is not present in the sample, the antibody binds to the ED-containing conjugate inhibiting association of the ED fragments with the EA fragments, thus inhibiting restoration of enzyme activity. The amount of reaction product and resultant absorbance change are proportional to the amount of MPA in the specimen. […] (active metabolite), were added to MPA-free plasma for measuring cross-reactivity. The estimated cross-reactivity of each compound was calculated using the formula: (measured concentration-control concentration)×100% concentration tested Additionally, commonly co-prescribed and over-the-counter (OTC) drugs were tested in MPA-free plasma for cross-reactivity in the […] assay.

[2] = test system: inosine-monophosphate dehydrogenase (IMPDH); details: cited from earlier work

## COc1c(C)c2c(c(O[C@@H]3O[C@H](C(=O)O)[C@@H](O)[C@H](O)[C@H]3O)c1C/C=C(\C)CCC(=O)O)C(=O)OC2 [7-O-Glucuronide MPA]
[1]; concentration 1000 μg/ml
  % Cross-Reactivity: 0.0%

## COc1c(C)c2c(c(O)c1C/C=C(\C)CCC(=O)O[C@@H]1O[C@H](C(=O)O)[C@@H](O)[C@H](O)[C@H]1O)C(=O)OC2 [Acyl glucuronide MPA]
[1]; concentration 10 μg/ml
  % Cross-Reactivity: 192%
[2]
  inhibition of IMPDH: activity similar to that of MPA

## COc1c(C)c2c(c(O)c1C/C=C(\C)CCC(=O)O)C(=O)OC2 [MPA, Mycophenolic acid]
[2]
  inhibition of IMPDH: potent and specific inhibitor

## COc1c(C)c2c(c(O)c1C/C=C(\C)CCC(=O)OCCN1CCOCC1)C(=O)OC2 [Mycophenolate mofetil, 2-morpholinoethyl(E)-6-(1,3-dihydro-4-hydroxy-6-methoxy-7-methyl-3-oxo-5-isobenzofuranyl)-4-methyl-4-hexenoate]
[1]; concentration 926 μg/ml
  % Cross-Reactivity: 123%
